Assay results taken from EP2508171B1, “Pharmaceutical magnetic nano-particle composition” (Universitätsklinikum Erlangen, priority 2011, dated 2012).
Like-named read-outs stand apart in the source and are kept apart here.

Assay: Biodistribution and biodegradation after i.v. application (HPLC of MTO, SQUID/MRX of iron oxide)
Type: in vivo, New Zealand White Rabbits
Settings: for concentration at 24 h: New Zealand White, rabbit, iv, regular systemic dose of pure MTO (10 mg MTO/m2 body surface), n=6, HPLC
Experimental: For the animal experiments New Zealand White Rabbits were used. The animals, weighing about 4.5 - 5.2 kg, were treated (i.v.) with ferrofluid bound MTO containing a drug amount of 10% compared to the regular systemic dose which requires 10 mg MTO/m2 body surface (n=5). The other study group (n=6) received the regular systemic dose of pure MTO. After 24h hours the animals were sacrificed and the organs harvested. Complete organs of liver and kidneys were processed and MTO was extracted for HPLC-analysis. Tissue homogenates have also been measured by SQUID.

SMILES: O=C1c2c(O)ccc(O)c2C(=O)c2c(NCCNCCO)ccc(NCCNCCO)c21 [pure MTO, mitoxantron]
- concentration at 24 h (kidney, read-out: MTO concentration in kidneys): 8500 ng/g
- concentration at 24 h (liver, read-out: MTO concentration in liver tissue): 190 ng/g
- MTO enrichment in kidneys relative to liver (pure i.v. injection of MTO, regular systemic dose, 24h): 44 fold
